# Laboratory results reported in US5821231A, “CS-1 peptidomimetics, compositions and methods of using same” (Cytel Corporation, priority 1995, dated 1998).
# Square brackets hold non-standard residues; d marks the D form. Peptide text beside a SMILES is read from it. * marks the point of attachment. PhAc = O=C(Cc1ccccc1)*
# Legend:
# BALB/c mice = assay: Adoptive transfer delayed type hypersensitivity in mice (oxazolone); assay type: in vivo, mouse; details: initial study; 6 mg/kg/day s.c. pump, 24-hour; FIG. 5
# Method: An adoptive transfer delayed-type hypersensitivity murine model has been developed using splenic T cells primed to oxazolone. This model is described in Elices et al., Clin. Exp. Rheum., 11(Suppl. 8):577-580 (1993), whose procedures were followed here.
# Thus, BALB/c mice were shaved on the belly and painted (50 μl on the belly and 5 μl on each paw) with three percent oxazolone in acetone/olive oil (4:1) at days zero and 1. At day 5, the mice were sacrificed, their spleens removed, and splenic T cells were obtained via nylon wool columns.
# Normal saline or saline containing 25×10^6 /animal of the oxazolone-immune T cells were separately injected into naive mice. The mice were then challenged by painting 10 μl of 2 percent oxazolone onto one ear each. All procedures were carried out under sterile conditions and in endotoxin-free buffers.
# Prior to challenge or saline injection, the mice were implanted with pumps that subcutaneously administered normal saline, normal saline containing the compound, Compound ID No. 896.52, N-phenylacetyl-Leu-Asp-Phe-D-Pro-NH2, or normal saline containing a compound with a scrambled sequence continually at 6 mg/kg/day for a 24-hour time period. The swelling diameter at the site of challenge or saline injection was measured with a microcaliper 24 hours thereafter.
# An expanded study was carried out as described above except that a scrambled compound control was not used as a control for further inhibitor compounds of Table 1 with larger groups of mice. Statistical analyses were carried out versus injection of vehicle alone.
# VLA-4 = VLA-4 (Homo sapiens, UniProt P05556+P13612); assay: In vitro binding assay: 51Cr-labeled Jurkat cells to solid phase-bound CS-1 compound (SEQ ID NO:1); assay type: cell-based; parameters: inflammatory cells that contain the VLA-4 receptor [Jurkat cells; host or cells: Jurkat cells (human T lymphoblastic line)
# Method: Binding inhibition is measured here as a concentration of compound that inhibits one-half the binding between a standard number of Jurkat cells and a standard amount of CS-1 compound bound to the surface of a microtiter plate well. Those concentrations are conveniently expressed as IC50 values, smaller numbers indicating a lower concentration required to inhibit 50 percent binding and therefore greater potency. Further specifics of this assay are provided hereinafter.
# Jurkat cells (ATCC TIB 152), a human T lymphoblastic line, labeled with ^51 chromium were used to assay in vitro binding inhibition provided by various compounds discussed herein.
# The plates were prepared as follows: The 25-mer CS-1 compound (SEQ ID NO:1) dissolved at 0.5-1 μg/ml in a buffer of 0.1M NaHCO3 at pH 9.5 that also contained 10 μg/ml of bovine serum albumin (BSA) or a conjugate of the CS-1 compound linked to ovalbumin (CS-1-OVA) dissolved at 1-2.5 μg/ml in the same buffer was used as the substrate. Each well of the microtiter plates was coated with 50 μl of substrate or buffer alone for controls. The wells were permitted to dry out completely and were then rinsed twice with PBS at pH 7.4. Non-specific binding sites of each well were then blocked using 200 μl per well of RPMI/1 percent BSA for two hours at room temperature.
# Jurkat cells (3-5×10^6 cells) were placed into a 15 ml Falcon™ round-bottom tube with a cap. The tube was centrifuged, and the extra medium was then removed.
# Two hundred microliters of a ^51 Cr labeling solution were added to the centrifuged cells and maintained in contact with the cells for 90-120 minutes in a warm room. […] Longer contact times provide a greater amount of labeling but lower cell viability.
# The labeled cells are washed with (i) complete medium, (ii) 1 mM EDTA/PBS and then (iii) RPM1/1 percent BSA free of serum components. The cells are centrifuged after each washing. The cells are finally resuspended in serum-free RPMI/1 percent BSA at a concentration of 1×10^6 viable cells/ml, which provides a concentration that is diluted by one-half in the assay.
# Inhibitor compounds are prepared as stock solutions at 20 mg/ml in DMSO in 1.5 ml cryogenic screwcap vials, and were stored at -70° C. Using Flow™ round-bottom or V-bottom microtiter plates, the inhibitor compounds were prepared at twice the assay concentration in RPMI/1 percent BSA at 60 μl/well.
# Four initial dilutions were typically used.
# The ^51 Cr-labeled cells ([…] at 60 μl/well) were then admixed with the diluted compound solutions. The admixtures were maintained at room temperature (about 22° C.) for 30 minutes.
# One hundred microliters of each inhibitor compound/cell admixture were transferred to the substrate-coated wells. This was done in triplicate for each dilution. The resulting plates were incubated for 30 minutes at 37° C. and then washed gently three times with RPMI/1 percent BSA at 200 μl/well. Binding was observed microscopically, particularly after the second wash.
# The bound cells were then lysed by the addition of a 0.5 percent solution of sodium dodecylsulfate in water at 100 μl/well. The resulting solutions were then processed for counting and calculation of IC50 values following usual procedures.
# The data of Table 1 are normalized to the binding of SEQ ID NO: 3. […] Multiple assays for the same compound were averaged.
# VLA-4, sequence (P13612 34-1032): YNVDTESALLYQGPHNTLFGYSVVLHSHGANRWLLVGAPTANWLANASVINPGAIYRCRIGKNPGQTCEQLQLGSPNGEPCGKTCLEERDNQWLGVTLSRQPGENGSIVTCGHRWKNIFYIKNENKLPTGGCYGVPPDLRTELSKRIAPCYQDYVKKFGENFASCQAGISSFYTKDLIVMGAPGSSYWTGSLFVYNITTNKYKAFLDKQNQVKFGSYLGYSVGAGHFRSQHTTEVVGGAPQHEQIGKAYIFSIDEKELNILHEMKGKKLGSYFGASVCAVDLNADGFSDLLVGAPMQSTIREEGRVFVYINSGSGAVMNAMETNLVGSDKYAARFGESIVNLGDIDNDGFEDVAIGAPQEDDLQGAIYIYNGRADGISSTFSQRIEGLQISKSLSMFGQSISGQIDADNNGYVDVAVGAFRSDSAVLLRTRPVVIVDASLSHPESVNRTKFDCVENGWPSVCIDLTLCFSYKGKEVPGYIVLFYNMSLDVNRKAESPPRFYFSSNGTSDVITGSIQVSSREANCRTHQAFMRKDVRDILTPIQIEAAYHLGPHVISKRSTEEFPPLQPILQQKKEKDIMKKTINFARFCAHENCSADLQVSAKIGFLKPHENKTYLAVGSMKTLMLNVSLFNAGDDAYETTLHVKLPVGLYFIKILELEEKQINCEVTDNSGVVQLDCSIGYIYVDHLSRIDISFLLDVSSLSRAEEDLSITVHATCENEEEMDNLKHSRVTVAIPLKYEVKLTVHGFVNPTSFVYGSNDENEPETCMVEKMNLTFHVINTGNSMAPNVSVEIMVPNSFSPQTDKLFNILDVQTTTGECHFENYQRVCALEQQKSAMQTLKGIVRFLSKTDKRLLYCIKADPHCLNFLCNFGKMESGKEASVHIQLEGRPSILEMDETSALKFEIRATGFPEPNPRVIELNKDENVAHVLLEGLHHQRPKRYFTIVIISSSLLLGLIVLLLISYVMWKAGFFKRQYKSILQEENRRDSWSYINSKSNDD
# VLA-4, sequence (P05556 21-798): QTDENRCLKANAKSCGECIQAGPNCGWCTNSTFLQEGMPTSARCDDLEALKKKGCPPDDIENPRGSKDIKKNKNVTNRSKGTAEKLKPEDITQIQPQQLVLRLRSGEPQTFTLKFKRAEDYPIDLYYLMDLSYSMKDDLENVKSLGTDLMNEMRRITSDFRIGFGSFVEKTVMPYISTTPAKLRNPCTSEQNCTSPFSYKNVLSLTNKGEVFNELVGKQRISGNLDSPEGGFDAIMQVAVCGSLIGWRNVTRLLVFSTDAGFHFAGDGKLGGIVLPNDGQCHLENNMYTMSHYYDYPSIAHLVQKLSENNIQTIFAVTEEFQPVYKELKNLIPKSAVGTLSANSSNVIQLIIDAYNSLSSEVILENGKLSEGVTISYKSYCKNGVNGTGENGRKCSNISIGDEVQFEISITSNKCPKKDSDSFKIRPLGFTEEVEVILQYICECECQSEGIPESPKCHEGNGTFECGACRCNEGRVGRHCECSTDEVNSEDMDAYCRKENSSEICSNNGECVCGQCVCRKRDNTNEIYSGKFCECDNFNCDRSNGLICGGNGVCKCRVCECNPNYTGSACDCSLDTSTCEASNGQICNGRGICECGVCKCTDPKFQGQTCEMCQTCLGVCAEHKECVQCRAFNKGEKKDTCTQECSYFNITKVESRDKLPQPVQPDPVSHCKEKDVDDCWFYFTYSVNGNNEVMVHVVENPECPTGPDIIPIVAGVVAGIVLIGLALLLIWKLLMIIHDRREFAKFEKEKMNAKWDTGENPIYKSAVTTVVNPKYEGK
smiles,measurement,setting,value
"CC(C)C[C@H](NC(=O)[C@H](CC(=O)O)NC(=O)Cc1ccccc1)C(=O)N[C@@H](Cc1ccccc1)C(=O)N1CCC[C@@H]1C(N)=O [N-phenylacetyl-Asp-Leu-Phe-D-Pro-NH2, reference compound] (PhAc-DLF[dP]-NH2)",reduction of inflammation (swelling diameter at challenge site),BALB/c mice,no reduction of inflammation
same,Relative Potency,"VLA-4; binding inhibition potency (IC50) relative to standard compound of SEQ ID NO:3 = 1, about one-tenth or less assigned zero",0
same,VLA-4 binding inhibition (in words),VLA-4; compared with standard 10-mer of SEQ ID NO:3 or other peptides,no inhibition of VLA-4
